# Measurements as given in US5380715A, “Ap4 A as a hypotensive agent” (Fujirebio Inc., priority 1992, dated 1995).
# Entries after “also recorded” stand apart in the source; their conditions may differ.
# Assays:
# [1] = test system: dogs; assay: Gradual hypotension during anesthesia in dogs (hemodynamics, blood gas); type: in vivo, mongrel dogs; conditions: dog
# Description: Dogs were anesthetized with enflurane. […] The mean blood pressure (B.P.), heart rate (H.R.), cardiac output (C.O.), arterial oxygen tension (PaO2), mixed venos oxygen tension (PvO2), arterial carbonate tension (PaCO2), mixed venous carbonate tension (PvCO2), arterial pH (pH-a), mixed venous pH (pH-v), and base excess thereof were measured.
# Mongrel dogs weighing 9 to 17 kg were anesthetized with intravenous thiopental 20 mg/kg by bolus injection, followed by 1% enflurane in 40% O2 /N2 after endotracheal intubation. […] Bilateral femoral arteries were catheterized, one for the determination of blood pressure and the other for blood sampling.
# Access to the bilateral femoral veins was obtained for the administration of Ap4A, PG E1 or nitroglycerin and for the insertion of a ballon-tipped thermodilution catheter. The electrocardiogram was continuously monitored. The control values were obtained before the administration of each of the above-mentioned three agents. Each agent was administered using a syringe pump at titrated doses to produce gradual 20%, 40%, 50%, 60%, and 80% decreases in the mean arterial pressure (MAP) from the control value.
# After the target blood pressure and stable hemodynamic conditions were reached, the following parameters were measured: heart rate (HR), mean pulmonary artery pressure (PAM), pulmonary capillary wedge pressure (PCWP), and central venous pressure (CVP). Cardiac output (CO) was determined by the thermodilution method. Gas analyses of arterial and mixed venous bloods were performed using a blood gas analyzer.
# [2] = test system: blood pressure; assay: Gradual hypotension under halothane or urethane + α-chloralose anesthesia; type: in vivo; conditions: halothane anesthesia; urethane (0.5 g/kg) + α-chloralose (80 mg/kg) anesthesia; words
# [3] = test system: rats; assay: Gradual hypotension during anesthesia in rats; type: in vivo, male SD rats; conditions: rat
# Description: Male SD rats (Charles River Japan Inc.) were anesthetized with intravenous thiopental 50 mg/kg as a bolus, followed by 1% enflurane in air.
# A femoral artery was catheterized to monitor the blood pressure and heart rate, while a femoral vein was catheterized for the administration of each of the test drugs.
# The control values were obtained before the administration of each test drug. Each test drug was then administered using a syringe in a dose-dependent manner for 15 minutes. The percentage (%) of the decrease of blood pressure was determined when stabilized. Changes in heart rate (H.R.) at the administration of each test drug were measured. Furthermore,the recovery of mean blood pressure after intravenous infusion of each test drug was also determined from the decrease in heart rate and the blood pressure at a maximum dose of each test drug.
# [4] = enflurane, at -60% blood pressure
# [5] = enflurane, at -80% blood pressure
# [6] = enflurane, infusion 1 μg/kg/min
# [7] = enflurane, infusion 3 μg/kg/min
# [8] = enflurane, infusion 10 μg/kg/min
# [9] = enflurane, infusion 30 μg/kg/min
# [10] = enflurane, infusion 100 μg/kg/min
# [11] = enflurane, infusion 300 μg/kg/min
# [12] = enflurane, infusion 1000 μg/kg/min
# [13] = enflurane, infusion 3000 μg/kg/min
structure (smiles),measurement,setting,value
"Nc1ncnc2c1ncn2[C@@H]1O[C@H](COP(=O)(O)OP(=O)(O)OP(=O)(O)OP(=O)(O)OC[C@H]2O[C@@H](n3cnc4c(N)ncnc43)[C@H](O)[C@@H]2O)[C@@H](O)[C@H]1O [Ap4A, diadenosine 5',5'""-p^1,p^4 -tetraphosphate]",Heart Rate H.R.,[1]; [4],131.6 ± 7.5 beats/min
same,Hematocrit Value Hct,[1]; [4],41.9 ± 2.2%
same,Mean Blood Pressure B.P. (mean),[1]; [4],51.7 ± 1.7
same,Mean Blood Pressure B.P. (Δ%),[1]; [4],-60.3 ± 0.2%
same,Mixed Venous Carbonate Tension PvCO2,[1]; [4],38.1 ± 1.8 mmHg
same,Mixed Venous Oxygen Tension PvO2,[1]; [4],54.9 ± 1.8 mmHg
same,Mixed Venous pH (pH-v),[1]; [4],7.292 ± 0.011
same,Pulmonary Artery Pressure PAM,[1]; [4],14.3 ± 1.1 mmHg
same,Pulmonary Capillary Wedge Pressure PCWP,[1]; [4],6.7 ± 10.9 mmHg
same,Base Excess BE,"[1]; enflurane, at -60% blood pressure (Table 1)",-7.30 ± 0.64 mBq-1
same,Arterial Carbonate Tension PaCO2,[1]; [5],37.5 ± 1.1 mmHg
same,Arterial Oxygen Tension PaO2,[1]; [5],245.6 ± 9.2 mmHg
same,Arterial pH (pH-a),[1]; [5],7.260 ± 0.010
same,Body Temperature BT,[1]; [5],37.4 ± 0.6 °C
same,Cardiac Output C.O.,[1]; [5],1.16 ± 0.11 L/min
same,Central Venous Pressure CVP,[1]; [5],3.51 ± 0.60 mmHg
same,Dose,[1]; [5],3895.2 ± 675.7 µg/kg/min
same,Heart Rate H.R.,[1]; [5],98.6 ± 4.7 beats/min
same,Hematocrit Value Hct,[1]; [5],42.8 ± 2.2%
same,Mean Blood Pressure B.P. (mean),[1]; [5],28.8 ± 1.0
same,Mean Blood Pressure B.P. (Δ%),[1]; [5],-77.8 ± 0.8%
same,Mixed Venous Carbonate Tension PvCO2,[1]; [5],44.4 ± 1.4 mmHg
same,Mixed Venous Oxygen Tension PvO2,[1]; [5],53.3 ± 2.8 mmHg
same,Mixed Venous pH (pH-v),[1]; [5],7.228 ± 0.014
same,Pulmonary Artery Pressure PAM,[1]; [5],14.3 ± 1.2 mmHg
same,Pulmonary Capillary Wedge Pressure PCWP,[1]; [5],7.4 ± 1.0 mmHg
same,Base Excess BE,"[1]; enflurane, at -80% blood pressure (Table 1)",-9.36 ± 0.79 mBq-1
same,effect on arterial pH / venous pH,[1]; result in words,does not decrease arterial pH and venous pH up to a less than 60% fall in blood pressure; also recorded: does not substantially decrease arterial pH in practical use
same,effect on base excess,[1]; result in words,does not make any significant changes in base excess
same,effect on carbonate tension,[1]; result in words,"tendency to decrease arterial carbonate tension (PaCO2), and mixed venous carbonate tension (PvCO2); also recorded: tendency to decrease arterial carbonate tension (PaCO2), mixed venous carbonate tension (PvCO2), or actually decreases PaCO2 and PvCO2"
same,effect on cardiac output,[1]; result in words,"cardiac output is significantly increased at a 20% fall in blood pressure; also recorded: tendency to significantly increase the cardiac output when a 20% fall in blood pressure is attained, and the cardiac output is continuously increased until a 60% fall in blood pressure is attained"
same,effect on heart rate,[1]; result in words,"when a 60% or more fall in blood pressure is attained, Ap4A is seem to have significant adverse effects on the heart rate; also recorded: significant effect on heart rate is that required for a 60% or more fall in blood pressure"
same,effect on oxygen tension,[1]; result in words,"tendency to increase arterial oxygen tension (PaO2), and mixed venous oxygen tension (PvO2); also recorded: tendency to increase arterial oxygen tension (PaO2), and mixed venous oxygen tension (PvCO2), or actually increases PaO2 and PvO2"
same,hypotensive effect compared with PG E1 / nitroglycerin,[1]; result in words,the same hypotensive effect as that of PG E1; also recorded: comparable with that of PG E1 and is better than that of nitroglycerin
same,gradual hypotensive effect,[2],almost the same gradual hypotensive effect
same,administration that gradually decreased blood pressure,[3]; enflurane,≥ 10 µg/kg/min
same,fall in blood pressure,"[3]; enflurane, 300 μg/kg/min",about 40%
same,fall in blood pressure,"[3]; enflurane, 1000 μg/kg/min or more",≥ 60%
same,Blood Pressure (Δ%),[3]; [6],0%
same,Heart Rate (Δ%),[3]; [6],0%
same,Blood Pressure (Δ%),[3]; [7],0%
same,Heart Rate (Δ%),[3]; [7],0%
same,Blood Pressure (Δ%),[3]; [8],-4.7 ± 0.6%
same,Heart Rate (Δ%),[3]; [8],1.3 ± 0.6%
same,Blood Pressure (Δ%),[3]; [9],-10.2 ± 1.1%
same,Heart Rate (Δ%),[3]; [9],2.7 ± 0.8%
same,Blood Pressure (Δ%),[3]; [10],-22.9 ± 1.2%
same,Heart Rate (Δ%),[3]; [10],2.4 ± 1.0%
same,Blood Pressure (Δ%),[3]; [11],-43.5 ± 2.2%
same,Heart Rate (Δ%),[3]; [11],-6.6 ± 1.2%
same,Blood Pressure (Δ%),[3]; [12],-58.6 ± 1.8%
same,Heart Rate (Δ%),[3]; [12],-15.9 ± 1.9%
same,Blood Pressure (Δ%),[3]; [13],-65.8 ± 1.2%
same,Heart Rate (Δ%),[3]; [13],-24.9 ± 2.4%
same,decrease of heart rate,"[3]; enflurane, result in words",A significant decrease of heart rate was observed at about 60% fall in blood pressure
same,stability of hypotensive effect at each dose,[3]; result in words,did not significantly change the blood pressure attained by each dose
